In PMC10745926, “Synthesis and Evaluation of Compound Targeting α7 and β2 Subunits in Nicotinic Acetylcholinergic Receptor” (Molecules, 2023):
Read-outs that look alike come from different tables or passages of the source. Marks after values point to notes of the source that are not given here.

Columns and labels:
α7 nAChR [1] = assay: HEK293 cells transfected with α7 nAChRs (ASEM, literature); type: binding; conditions: from cited affinities
α7 nAChR [2] = target: α7 nAChR; parameters: method as in PMID 24050653; conditions: HEK293 cells transfected with α7 nAChRs; read-out: Binding affinity α7*; cited from earlier work
α4β2 nAChR [3] = target: α4β2 nAChR; parameters: method as in PMID 24050653; conditions: HEK293 cells transfected with α4β2 nAChRs; read-out: Binding affinity α4β2*; cited from earlier work
α7 nAChR [4] = target: α7 nAChR; parameters: method as in PMID 25687449; conditions: cited from earlier work
α7 nAChR [5] = assay: HEK293 membranes expressing α7 nAChRs (Iodo-ASEM, literature); type: binding; conditions: IodoASEM, from cited affinities
α4β2 nAChR [6] = target: α4β2 nAChR; parameters: method as in PMID 25687449; conditions: HEK293 membranes expressing α4β2 nAChRs; read-out: Binding affinity α4β2*; cited from earlier work
α4β2* nAChR [7] = conditions: cited from earlier work
α7 nAChR [8] = target: T1, α7 nAChR (Rattus norvegicus, UniProt Q05941); parameters: method as in PMID 18445710; conditions: tested in rat; read-out: Binding affinity α7*; cited from earlier work
α7 nAChR [9] = target: T1, α7 nAChR; type: binding
α4β2* nAChR [10] = target: T2, α4β2* nAChR (Rattus norvegicus, UniProt P09483+P12390); type: binding
T2 construct: Horizontal brain slices, 10 µm thick from male Sprague Dawley rats; from tissue; host or cells: rat brain slices (male Sprague Dawley), several brain regions

α4β2* nAChR [11] = target: T2, α4β2* nAChR; assay: Rat brain homogenates labeled with 3H-cytisine (literature); type: binding; conditions: α4β2 value from 3H-cytisine rat brain homogenates, α7 from rat cloned receptors
α4β2* nAChR [12] = target: T2, α4β2* nAChR; conditions: read-out: Binding affinity α4β2*; rat brain cortex labeled with 3H-epibatidine; cited from earlier work
α7 nAChR [13] = target: T1, α7 nAChR; parameters: method as in PMID 28875553; conditions: rat cloned receptors labeled with α-[125I]BuTX; read-out: Binding affinity α7*; cited from earlier work
α7 nAChR [14] = target: T1, α7 nAChR; assay: biochemical; type: binding
α4β2* nAChR [15] = target: T2, α4β2* nAChR; assay: [3H]cytisine competition binding on rat brain slices (autoradiography)
Experimental: Our previously published procedures were used for [^3H]cytisine experiments. Horizontal brain slices, 10 µm thick from male Sprague Dawley rats, were preincubated in the buffer (50 mmol/L Tris HCl containing 120 mmol/L NaCl, 5 mmol/L KCl, 2.5 mmol/L CaCl2, 1 mmol/L MgCl2, pH 7.4) for 10 min. The pre-incubation buffer was then discarded and the slices were incubated with [^3H]cytisine (2.5 nM, specific activity of 32.7 Ci/mmol) at 2 °C for 75 min. […] After incubation, slices were washed twice (2 min each wash) with ice-cold Tris buffer, pH 7.4, followed by a quick rinse in cold (0–5 °C) deionized water. The slides were then air dried and the radiolabeled brain sections were apposed on storage phosphor screens for two weeks (Perkin Elmer Multisensitive, Medium MS, New Jersy, USA). For autoradiographic analysis, the apposed phosphor screens were read and analyzed by OptiQuant acquisition and analysis program of the Cyclone Storage Phosphor System (Packard Instruments Co., Boston, MA, USA). Regions of interest of same size were drawn and analyzed on brain regions using OptiQuant software version 2 and binding of [^3H]cytisine measured in DLU/mm^2. Data were analyzed using following procedure: (a) the non-specific binding of [^3H]cytisine was subtracted for all samples; (b) the specific binding was normalized to 100% (no competitive ligand); and (c) the binding isotherms were fit to the Hill equation (KELL BioSoft software (v 6), Cambridge, UK).

human α4β2 nAChR [16] = conditions: cytisine, from cited affinities
human α4β2 nAChR [17] = conditions: cited from earlier work
human α7 nAChR = conditions: read-out: Binding affinity α7*; human α7 nAChR in SH-SY5Y cells; cited from earlier work
[18] = frontal cortex values taken from Table 1

Question: With O=S1(=O)c2cc(N3CCN4CCC3CC4)ccc2-c2cccc(F)c21 [ASEM] as the molecule, how does the “α7/α4β2 Ratio” value (α7 nAChR [1]) read?
Answer: The value was 0.0007.

Question: What about the Ki (α7 nAChR [2]) of the same molecule?
Answer: Its Ki is 0.37 nM.

Question: And the Ki (α4β2 nAChR [3])?
Answer: The Ki was 562 nM.

Question: Which Ki (α7 nAChR [4]; HEK293 membranes expressing α7 nAChRs, read-out: Binding affinity α7*) does the source give for O=S1(=O)c2cc(N3CCN4CCC3CC4)ccc2-c2cccc(I)c21 [IodoASEM] here?
Answer: The Ki was 0.5 nM.

Question: What about the “α4β2/α7 Ratio” value (α7 nAChR [4]; HEK293 membranes) of the same molecule?
Answer: Its value is 3414 ^h.

Question: And the “α7/α4β2 Ratio” value (α7 nAChR [5])?
Answer: Its value is 0.0003.

Question: And the Ki (α4β2 nAChR [6])?
Answer: Its Ki is 1710 nM.

Question: With α-Iodobungarotoxin as the molecule, how does the “Binding affinity α4β2*” value (α4β2* nAChR [7]) read?
Answer: The value was >1000 ^f nM.

Question: And the Ki (α7 nAChR [8])?
Answer: The Ki was 0.5 nM.

Question: What about the “α4β2/α7 Ratio” value (α7 nAChR [9]) of the same molecule?
Answer: Its value is 2000.

Question: What about the “α7/α4β2 Ratio” value (α7 nAChR [9]) of the same molecule?
Answer: The value was 0.0005.

Question: For Fc1ncccc1OC[C@@H]1C=CCN1 [Nifene], which “α4β2/α7 Ratio” value (α4β2* nAChR [10]; listed as with α4β2 value from 3H-epibatidine rat cortex) is on record?
Answer: The value was 0.007.

Question: What about the “α7/α4β2 Ratio” value (α4β2* nAChR [10]; α4β2 value from 3H-epibatidine rat cortex, α7 from rat cloned receptors) of the same molecule?
Answer: Its value is 158.

Question: What about the “α7/α4β2 Ratio” value (α4β2* nAChR [11]) of the same molecule?
Answer: The value was 338.

Question: What about the Ki (α4β2* nAChR [12]) of the same molecule?
Answer: The Ki was 1.07 nM.

Question: And the Ki (α7 nAChR [13])?
Answer: The Ki was 169 nM.

Question: What does the source list for c1ncc(N2CCN3CCC2CC3)cc1OCC1CCN1 [KS7, 3-(2-(S)-azetidinylmethoxy)-5-(1,4-diaza-bicyclo[3.2.2]nonane)pyridine]?
Answer: IC50 (α7 nAChR [14]; frontal cortex value taken from Table 1, read-out: Binding affinity α7*): 9900 nM; IC50 (α7 nAChR [14]; rat brain slices, Anterior Cingulate, read-out: Inhibition constants (IC50), [125I]α-BuTX, α7* nAChRs): 12600 nM; IC50 (α7 nAChR [14]; rat brain slices, Frontal Cortex, read-out: Inhibition constants (IC50), [125I]α-BuTX, α7* nAChRs): 9900 nM; IC50 (α7 nAChR [14]; rat brain slices, Hippocampus, read-out: Inhibition constants (IC50), [125I]α-BuTX, α7* nAChRs): 33200 nM; IC50 (α7 nAChR [14]; rat brain slices, Inferior Colliculus, read-out: Inhibition constants (IC50), [125I]α-BuTX, α7* nAChRs): 46800 nM; IC50 (α4β2* nAChR [15]; frontal cortex value taken from Table 1, read-out: Binding affinity α4β2*): 109 nM; α4β2/α7 Ratio (α4β2* nAChR [15]; [18]): 0.01 ^j; α7/α4β2 Ratio (α4β2* nAChR [15]; [18]): 91 ^j; IC50 (α4β2* nAChR [15]; rat brain slices, Anterior Cingulate, read-out: Inhibition constants (IC50), [3H]Cytisine, α4β2* nAChRs): 49.5 nM; IC50 (α4β2* nAChR [15]; rat brain slices, Frontal Cortex, read-out: Inhibition constants (IC50), [3H]Cytisine, α4β2* nAChRs): 109 nM; IC50 (α4β2* nAChR [15]; rat brain slices, Striatum, read-out: Inhibition constants (IC50), [3H]Cytisine, α4β2* nAChRs): 86.9 nM; IC50 (α4β2* nAChR [15]; rat brain slices, Subiculum, read-out: Inhibition constants (IC50), [3H]Cytisine, α4β2* nAChRs): 172 nM; IC50 (α4β2* nAChR [15]; rat brain slices, Thalamus, read-out: Inhibition constants (IC50), [3H]Cytisine, α4β2* nAChRs): 134 nM; IC50 (α4β2* nAChR [15]; rat brain, several brain regions (abstract), read-out: IC50 for [3H]cytisine radiolabeled sites): 50 to 172 nM; α7/α4β2 Ratio (α4β2* nAChR [15]; ratio of IC50 values, Anterior Cingulate): 254; α7/α4β2 Ratio (α4β2* nAChR [15]; ratio of IC50 values, Frontal Cortex): 91

Question: Which results are given for O=c1cccc2n1C[C@@H]1CNC[C@H]2C1 [Cytisine]?
Answer: α4β2/α7 Ratio (human α4β2 nAChR [16]): 0.002; α7/α4β2 Ratio (human α4β2 nAChR [17]; heterologously expressed human receptors): 544 ^e; Ki (human α4β2 nAChR [17]; read-out: Binding affinity α4β2*, human α4β2 in HEK293 cells): 1.27 nM; Ki (human α7 nAChR): 691 nM
